Structures are written as SMILES. “And” between values parts separate entries of the source, which are not always exact repeats. Equal values may be shown once.
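Note: compound exposure lasted 7 days after spheroids had grown for 3 days.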

The first test has as its system 699152-130-R-J1-PDC complex spheroid growth. In words: Anticancer human tumor 699152-130-R-J1-PDC patient-derived pancreatic carcinoma cell line growth inhibition [AhR]. The note with it: compound 0.00949 µM; stronger effect = lower value. The method in brief:
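Spheroids combined tumor cells with HUVEC endothelial cells and human MSCs as stroma. AhR antagonists were paired with standard or investigational drugs, each dosed in half-log steps down from near clinical Cmax, or from 10 microM where Cmax was unknown.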
For the compound `O=C(C=Cn1cnc(-c2cc(C(F)(F)F)cc(C(F)(F)F)c2)n1)NNc1cnccn1`, the viability, T/C is 99.1% and 89.9% and 89%.

Staying with this test, now noted: compound 0.03 µM; stronger effect = lower value.
With `O=C(C=Cn1cnc(-c2cc(C(F)(F)F)cc(C(F)(F)F)c2)n1)NNc1cnccn1`, the viability, T/C was 98.2% and 95.7% and 107%.

Staying with this test, now noted: compound 0.0949 µM; stronger effect = lower value.
Consider `O=C(C=Cn1cnc(-c2cc(C(F)(F)F)cc(C(F)(F)F)c2)n1)NNc1cnccn1`, for which the viability, T/C was 92% and 79.8% and 82.9%.

Still in this test, the particulars now being: compound 0.3 µM; stronger effect = lower value.
Turning to `O=C(C=Cn1cnc(-c2cc(C(F)(F)F)cc(C(F)(F)F)c2)n1)NNc1cnccn1`, the viability, T/C was 73.7% and 77.4% and 74.8%.

Staying with this test, now noted: compound 0.949 µM; stronger effect = lower value.
As for `O=C(C=Cn1cnc(-c2cc(C(F)(F)F)cc(C(F)(F)F)c2)n1)NNc1cnccn1`, the viability, T/C was 69.4% and 79.6% and 90%.

The same test, now with this note: compound 3 µM; stronger effect = lower value.
`O=C(C=Cn1cnc(-c2cc(C(F)(F)F)cc(C(F)(F)F)c2)n1)NNc1cnccn1`: the viability, T/C was 77.4% and 72.9% and 69.9%.

The test is the same for the next values; noted with them: curve of compound.
Regarding `O=C(C=Cn1cnc(-c2cc(C(F)(F)F)cc(C(F)(F)F)c2)n1)NNc1cnccn1`, the IC50 was over 3 µM.

The test is the same for the next values; noted with them: curve of first compound; second compound 0.1 µM.
For the compound `COc1ccc([C@@H](O)c2cc(-c3ncnc4cc(N5CCOCC5)ccc34)c(F)cc2Cl)nn1` + CC(CO)NC(=O)c1cc(-c2ccc(Cl)cc2)nn(-c2cnn(C)c2)c1=O, the IC50 was found to be 3.77 µM.

As to `O=C(C=Cc1cccc(S(=O)(=O)Nc2ccccc2)c1)NO` + Cc1cncc(-c2nc(NCCc3c[nH]c4ccccc34)c3ncn(C(C)C)c3n2)c1, the half-inhibitory concentration (IC50) is over 10 µM.

On to `CC1COCCN1c1cc(C2(S(C)(=N)=O)CC2)nc(-c2ccnc3[nH]ccc23)n1` (stereo unspecified) + CC(CO)NC(=O)c1cc(-c2ccc(Cl)cc2)nn(-c2cnn(C)c2)c1=O, for which the IC50 was over 10 µM.

Consider `COc1cc(Nc2ncc3c(n2)-c2ccc(Cl)cc2C(c2c(F)cccc2OC)=NC3)ccc1C(=O)O` + Cc1cncc(-c2nc(NCCc3c[nH]c4ccccc34)c3ncn(C(C)C)c3n2)c1, for which the IC50 was over 10 µM.

The test is the same for the next values; noted with them: curve of first compound; second compound 0.316 µM.
Take `COc1ccc([C@@H](O)c2cc(-c3ncnc4cc(N5CCOCC5)ccc34)c(F)cc2Cl)nn1` + CC(CO)NC(=O)c1cc(-c2ccc(Cl)cc2)nn(-c2cnn(C)c2)c1=O: the IC50 stood at 4.81 µM.

For `O=C(C=Cc1cccc(S(=O)(=O)Nc2ccccc2)c1)NO` + Cc1cncc(-c2nc(NCCc3c[nH]c4ccccc34)c3ncn(C(C)C)c3n2)c1, the IC50 is over 10 µM.

`CC1COCCN1c1cc(C2(S(C)(=N)=O)CC2)nc(-c2ccnc3[nH]ccc23)n1` (stereo unspecified) + CC(CO)NC(=O)c1cc(-c2ccc(Cl)cc2)nn(-c2cnn(C)c2)c1=O: the concentration for half-maximal inhibition (IC50) is over 10 µM.

`COc1cc(Nc2ncc3c(n2)-c2ccc(Cl)cc2C(c2c(F)cccc2OC)=NC3)ccc1C(=O)O` + Cc1cncc(-c2nc(NCCc3c[nH]c4ccccc34)c3ncn(C(C)C)c3n2)c1: the IC50 was over 10 µM.

Still in this test, the particulars now being: curve of first compound; second compound 1 µM.
On to `COc1ccc([C@@H](O)c2cc(-c3ncnc4cc(N5CCOCC5)ccc34)c(F)cc2Cl)nn1` + CC(CO)NC(=O)c1cc(-c2ccc(Cl)cc2)nn(-c2cnn(C)c2)c1=O, for which the concentration for half-maximal inhibition (IC50) turned out to be 4.41 µM.

For the compound `O=C(C=Cc1cccc(S(=O)(=O)Nc2ccccc2)c1)NO` + Cc1cncc(-c2nc(NCCc3c[nH]c4ccccc34)c3ncn(C(C)C)c3n2)c1, the IC50 is over 10 µM.

As for `CC1COCCN1c1cc(C2(S(C)(=N)=O)CC2)nc(-c2ccnc3[nH]ccc23)n1` (stereo unspecified) + CC(CO)NC(=O)c1cc(-c2ccc(Cl)cc2)nn(-c2cnn(C)c2)c1=O, the IC50 is over 10 µM.

With `COc1cc(Nc2ncc3c(n2)-c2ccc(Cl)cc2C(c2c(F)cccc2OC)=NC3)ccc1C(=O)O` + Cc1cncc(-c2nc(NCCc3c[nH]c4ccccc34)c3ncn(C(C)C)c3n2)c1, the IC50 is over 10 µM.

Staying with this test, now noted: curve of first compound; second compound 3.16 µM.
As for `COc1ccc([C@@H](O)c2cc(-c3ncnc4cc(N5CCOCC5)ccc34)c(F)cc2Cl)nn1` + CC(CO)NC(=O)c1cc(-c2ccc(Cl)cc2)nn(-c2cnn(C)c2)c1=O, the IC50 is 4.24 µM.

Turning to `O=C(C=Cc1cccc(S(=O)(=O)Nc2ccccc2)c1)NO` + Cc1cncc(-c2nc(NCCc3c[nH]c4ccccc34)c3ncn(C(C)C)c3n2)c1, the IC50 is over 10 µM.

As for `CC1COCCN1c1cc(C2(S(C)(=N)=O)CC2)nc(-c2ccnc3[nH]ccc23)n1` (stereo unspecified) + CC(CO)NC(=O)c1cc(-c2ccc(Cl)cc2)nn(-c2cnn(C)c2)c1=O, the IC50 was over 10 µM.

Regarding `COc1cc(Nc2ncc3c(n2)-c2ccc(Cl)cc2C(c2c(F)cccc2OC)=NC3)ccc1C(=O)O` + Cc1cncc(-c2nc(NCCc3c[nH]c4ccccc34)c3ncn(C(C)C)c3n2)c1, the IC50 is over 10 µM.

Staying with this test, now noted: curve of first compound; second compound 10 µM.
For `COc1ccc([C@@H](O)c2cc(-c3ncnc4cc(N5CCOCC5)ccc34)c(F)cc2Cl)nn1` + CC(CO)NC(=O)c1cc(-c2ccc(Cl)cc2)nn(-c2cnn(C)c2)c1=O, the IC50 turned out to be 2.61 µM.

Regarding `O=C(C=Cc1cccc(S(=O)(=O)Nc2ccccc2)c1)NO` + Cc1cncc(-c2nc(NCCc3c[nH]c4ccccc34)c3ncn(C(C)C)c3n2)c1, the IC50 is under 0.0316 µM.

Take `CC1COCCN1c1cc(C2(S(C)(=N)=O)CC2)nc(-c2ccnc3[nH]ccc23)n1` (stereo unspecified) + CC(CO)NC(=O)c1cc(-c2ccc(Cl)cc2)nn(-c2cnn(C)c2)c1=O: the IC50 is over 10 µM.

In the case of `COc1cc(Nc2ncc3c(n2)-c2ccc(Cl)cc2C(c2c(F)cccc2OC)=NC3)ccc1C(=O)O` + Cc1cncc(-c2nc(NCCc3c[nH]c4ccccc34)c3ncn(C(C)C)c3n2)c1, the IC50 was under 0.0316 µM.

The test is the same for the next values; noted with them: second compound 0.1 µM; first compound 0.0316 µM; stronger effect = lower value.
Take `COc1ccc([C@@H](O)c2cc(-c3ncnc4cc(N5CCOCC5)ccc34)c(F)cc2Cl)nn1` + CC(CO)NC(=O)c1cc(-c2ccc(Cl)cc2)nn(-c2cnn(C)c2)c1=O: the viability, T/C was 95.1%.

With `O=C(C=Cc1cccc(S(=O)(=O)Nc2ccccc2)c1)NO` + Cc1cncc(-c2nc(NCCc3c[nH]c4ccccc34)c3ncn(C(C)C)c3n2)c1, the viability, T/C is 110%.

In the case of `CC1COCCN1c1cc(C2(S(C)(=N)=O)CC2)nc(-c2ccnc3[nH]ccc23)n1` (stereo unspecified) + CC(CO)NC(=O)c1cc(-c2ccc(Cl)cc2)nn(-c2cnn(C)c2)c1=O, the viability, T/C is 87.9%.

`COc1cc(Nc2ncc3c(n2)-c2ccc(Cl)cc2C(c2c(F)cccc2OC)=NC3)ccc1C(=O)O` + Cc1cncc(-c2nc(NCCc3c[nH]c4ccccc34)c3ncn(C(C)C)c3n2)c1: the viability, T/C was 80.3%.

The same test, now with this note: second compound 0.1 µM; first compound 0.1 µM; stronger effect = lower value.
Regarding `COc1ccc([C@@H](O)c2cc(-c3ncnc4cc(N5CCOCC5)ccc34)c(F)cc2Cl)nn1` + CC(CO)NC(=O)c1cc(-c2ccc(Cl)cc2)nn(-c2cnn(C)c2)c1=O, the viability, T/C was 105%.

As for `O=C(C=Cc1cccc(S(=O)(=O)Nc2ccccc2)c1)NO` + Cc1cncc(-c2nc(NCCc3c[nH]c4ccccc34)c3ncn(C(C)C)c3n2)c1, the viability, T/C was 96.5%.

Take `CC1COCCN1c1cc(C2(S(C)(=N)=O)CC2)nc(-c2ccnc3[nH]ccc23)n1` (stereo unspecified) + CC(CO)NC(=O)c1cc(-c2ccc(Cl)cc2)nn(-c2cnn(C)c2)c1=O: the viability, T/C is 95.5%.

As to `COc1cc(Nc2ncc3c(n2)-c2ccc(Cl)cc2C(c2c(F)cccc2OC)=NC3)ccc1C(=O)O` + Cc1cncc(-c2nc(NCCc3c[nH]c4ccccc34)c3ncn(C(C)C)c3n2)c1, the viability, T/C is 77.1%.

The same test, now with this note: second compound 0.1 µM; first compound 0.316 µM; stronger effect = lower value.
Consider `COc1ccc([C@@H](O)c2cc(-c3ncnc4cc(N5CCOCC5)ccc34)c(F)cc2Cl)nn1` + CC(CO)NC(=O)c1cc(-c2ccc(Cl)cc2)nn(-c2cnn(C)c2)c1=O, for which the viability, T/C was 86.2%.

By viability, T/C is commonly meant the ratio of treated to control. Usually IC50 stands for the concentration that gives 50% inhibition.

(Values after PubChem BioAssay AID1919001 (Molecular Pharmacology Branch, DTP, NCI, 2023).)
